Results reported in BindingDB's records for doi:10.1021/jm060797q (Teikyo University, 2006).

Assay: Antagonist activity against 1-alpha,25-dihydroxy vitamin D3-induced HL60 cell differentiation by NBT reduction method

| SMILES | IC50 |
| --- | --- |
| C=C1/C(=C\C=C2/CCC[C@]3(C)[C@@H]([C@H](C)C[C@@H]4OC(=O)C(=C)[C@H]4CC(C)C)CC[C@@H]23)C[C@@H](O)[C@H](OCCCO)[C@@H]1O | 9.3 nM |
| C=C1/C(=C\C=C2/CCC[C@]3(C)[C@@H]([C@H](C)C[C@H]4OC(=O)C(=C)[C@@H]4CC)CC[C@@H]23)C[C@@H](O)C[C@@H]1O | 8.6 nM |
| C=C1/C(=C\C=C2/CCC[C@]3(C)[C@@H]([C@H](C)C[C@@H]4OC(=O)C(=C)[C@@H]4CC)CC[C@@H]23)C[C@@H](O)C[C@@H]1O | 8.6 nM |
| C=C1/C(=C\C=C2/CCC[C@]3(C)[C@@H]([C@H](C)C[C@H]4OC(=O)C(=C)[C@@H]4CCCC)CC[C@@H]23)C[C@@H](O)[C@H](CCCO)[C@@H]1O | 8.8 nM |
| C=C1/C(=C\C=C2/CCC[C@]3(C)[C@@H]([C@H](C)C[C@H]4OC(=O)C(=C)[C@@H]4C)CC[C@@H]23)C[C@@H](O)C[C@@H]1O | 11 nM |
| C=C1/C(=C\C=C2/CCC[C@]3(C)[C@@H]([C@H](C)C[C@@H]4OC(=O)C(=C)[C@H]4CC(C)C)CC[C@@H]23)C[C@@H](O)[C@H](CCCO)[C@@H]1O | 9.3 nM |
| C=C1/C(=C\C=C2/CCC[C@]3(C)[C@@H]([C@H](C)C[C@@H]4OC(=O)C(=C)[C@H]4CCCC)CC[C@@H]23)C[C@@H](O)[C@H](OCCCO)[C@@H]1O | 8.8 nM |
| C=C1/C(=C\C=C2/CCC[C@]3(C)[C@@H]([C@H](C)C[C@H]4OC(=O)C(=C)[C@H]4CC(C)C)CC[C@@H]23)C[C@@H](O)[C@H](C)[C@@H]1O | 11 nM |
| C=C1C(=O)O[C@H](C[C@@H](C)[C@H]2CC[C@H]3/C(=C/C=C4/C[C@@H](O)C[C@H](O)C4=C)CCC[C@]23C)[C@@H]1C | 9.2 nM |
| C=C1/C(=C\C=C2/CCC[C@]3(C)[C@@H]([C@H](C)C[C@@H]4OC(=O)C(=C)[C@@H]4CC(C)C)CC[C@@H]23)C[C@@H](O)[C@H](C)[C@@H]1O | 11 nM |
| C=C1C(=O)O[C@@H](C[C@@H](C)[C@H]2CC[C@H]3/C(=C/C=C4/C[C@@H](O)C[C@H](O)C4=C)CCC[C@]23C)[C@@H]1CC(C)C | 9.3 nM |
| C=C1/C(=C\C=C2/CCC[C@]3(C)[C@@H]([C@H](C)C[C@@H]4OC(=O)C(=C)[C@@H]4CC(C)C)CC[C@@H]23)C[C@@H](O)[C@H](CCCO)[C@@H]1O | 9.3 nM |

Results, then the compound that gave them:

| IC50 | SMILES |
| --- | --- |
| 8.1 nM | C=C1/C(=C\C=C2/CCC[C@]3(C)[C@@H]([C@H](C)C[C@H]4OC(=O)C(=C)[C@@H]4C)CC[C@@H]23)C[C@@H](O)[C@H](C)[C@@H]1O |
| 6.3 nM | C=C1/C(=C\C=C2/CCC[C@]3(C)[C@@H]([C@H](C)C[C@@H]4OC(=O)C(=C)[C@@H]4CCC)CC[C@@H]23)C[C@@H](O)[C@H](OCCCO)[C@@H]1O |
| 6.7 nM | C=C1/C(=C\C=C2/CCC[C@]3(C)[C@@H]([C@H](C)C[C@@H]4OC(=O)C(=C)[C@@H]4CC)CC[C@@H]23)C[C@@H](O)[C@H](C)[C@@H]1O |
| 6.2 nM | C=C1/C(=C\C=C2/CCC[C@]3(C)[C@@H]([C@H](C)C[C@H]4OC(=O)C(=C)[C@@H]4C)CC[C@@H]23)C[C@@H](O)[C@H](CCCO)[C@@H]1O |
| 8.4 nM | C=C1/C(=C\C=C2/CCC[C@]3(C)[C@@H]([C@H](C)C[C@H]4OC(=O)C(=C)[C@H]4CC)CC[C@@H]23)C[C@@H](O)[C@H](CCCO)[C@@H]1O |
| 8.2 nM | C=C1/C(=C\C=C2/CCC[C@]3(C)[C@@H]([C@H](C)C[C@@H]4OC(=O)C(=C)[C@@H]4CCCC)CC[C@@H]23)C[C@@H](O)C[C@@H]1O |
| 6.2 nM | C=C1C(=O)O[C@H](C[C@@H](C)[C@H]2CC[C@H]3/C(=C/C=C4/C[C@@H](O)[C@H](CCCO)[C@H](O)C4=C)CCC[C@]23C)[C@@H]1C |
| 6.7 nM | C=C1/C(=C\C=C2/CCC[C@]3(C)[C@@H]([C@H](C)C[C@H]4OC(=O)C(=C)[C@H]4CC)CC[C@@H]23)C[C@@H](O)[C@H](C)[C@@H]1O |
| 6.7 nM | C=C1/C(=C\C=C2/CCC[C@]3(C)[C@@H]([C@H](C)C[C@H]4OC(=O)C(=C)[C@@H]4CC)CC[C@@H]23)C[C@@H](O)[C@H](C)[C@@H]1O |
| 6.3 nM | C=C1/C(=C\C=C2/CCC[C@]3(C)[C@@H]([C@H](C)C[C@H]4OC(=O)C(=C)[C@H]4CCC)CC[C@@H]23)C[C@@H](O)[C@H](OCCCO)[C@@H]1O |
| 6 nM | C=C1/C(=C\C=C2/CCC[C@]3(C)[C@@H]([C@H](C)C[C@@H]4OC(=O)C(=C)[C@@H]4CCC)CC[C@@H]23)C[C@@H](O)C[C@@H]1O |
| 6.7 nM | C=C1/C(=C\C=C2/CCC[C@]3(C)[C@@H]([C@H](C)C[C@H]4OC(=O)C(=C)[C@@H]4CCCC)CC[C@@H]23)C[C@@H](O)[C@H](C)[C@@H]1O |
| 8.4 nM | C=C1/C(=C\C=C2/CCC[C@]3(C)[C@@H]([C@H](C)C[C@H]4OC(=O)C(=C)[C@@H]4CC)CC[C@@H]23)C[C@@H](O)[C@H](CCCO)[C@@H]1O |
| 6.3 nM | C=C1C[C@H](C[C@@H](C)[C@H]2CC[C@H]3/C(=C/C=C4/C[C@@H](O)C[C@H](O)C4=C)CCC[C@]23C)OC1=O |
| 6.3 nM | C=C1/C(=C\C=C2/CCC[C@]3(C)[C@@H]([C@H](C)C[C@H]4OC(=O)C(=C)[C@H]4CCC)CC[C@@H]23)C[C@@H](O)[C@H](CCCO)[C@@H]1O |
| 6.3 nM | C=C1/C(=C\C=C2/CCC[C@]3(C)[C@@H]([C@H](C)C[C@@H]4OC(=O)C(=C)[C@@H]4CCC)CC[C@@H]23)C[C@@H](O)[C@H](C)[C@@H]1O |
